Measurements as given in ChEMBL document CHEMBL3046383, “Enantioselective Herbicidal Activity of Chiral α-Methylbenzylphenylureas against Cyperaceae and Echinochloa Paddy Weeds” (Biosci Biotechnol Biochem, 1998).
The source made the active and inactive calls. The rule behind the calls is not given here.

Assays:
[1] = test system: Cyperus serotinus; experiment: Herbicidal activity against Cyperus serotinus assessed as phytotoxic activity ratings (0- no effect to 5-complete killing rating scale) at 3.1 to 100 g/a measured after 3 weeks post compound treatment under green house conditions; format: functional
[2] = test system: Oryza sativa; experiment: Phytotoxicity against directly seeded Oryza sativa (rice) seedlings assessed as phytotoxic activity ratings (0- no effect to 5-complete killing rating scale) at 100 g/a measured after 3 weeks post compound treatment under green house conditions; format: organism-based; conditions: in vivo, 504 h
[3] = test system: Cyperus difformis; experiment: Herbicidal activity against Cyperus difformis assessed as phytotoxic activity ratings (0- no effect to 5-complete killing rating scale) at 100 g/a measured after 3 weeks post compound treatment under green house conditions; format: functional
[4] = test system: Schoenoplectiella juncoides; experiment: Herbicidal activity against Schoenoplectiella juncoides var. Hotarui Ohwi assessed as phytotoxic activity ratings (0- no effect to 5-complete killing rating scale) at 100 g/a measured after 3 weeks post compound treatment under green house conditions; format: functional
[5] = test system: Echinochloa oryzicola; experiment: Herbicidal activity against Echinochloa oryzicola assessed as phytotoxic activity ratings (0- no effect to 5-complete killing rating scale) at 100 g/a measured after 3 weeks post compound treatment under green house conditions; format: functional
[6] = test system: Oryza sativa; experiment: Phytotoxicity against transplanted Oryza sativa (rice) seedlings assessed as phytotoxic activity ratings (0- no effect to 5-complete killing rating scale) at 100 g/a measured after 3 weeks post compound treatment under green house conditions; format: organism-based; conditions: in vivo, 504 h

Compound	Activity [1]	Activity [2] [%]	Activity [3] [%]	Activity [4] [%]	Activity [5] [%]	Activity [6] [%]
C[C@@H](NC(=O)Nc1ccc(F)cc1F)c1ccccc1	inactive	0	0	0	0	0
CCCCCCc1ccc(NC(=O)N[C@@H](C)c2ccccc2)cc1	inactive	0	0	0	0	0
C[C@H](NC(=O)Nc1cccc(Cl)c1)c1ccccc1	inactive	0	10	0	0	0
C[C@H](NC(=O)Nc1ccc(F)cc1F)c1ccccc1	inactive	0	0	0	0	0
C[C@@H](NC(=O)Nc1cc(C(F)(F)F)ccc1F)c1ccccc1	inactive	10	0	0	80	0
COc1ccc(NC(=O)N[C@H](C)c2ccccc2)cc1	inactive	0	0	0	0	0
C[C@@H](NC(=O)Nc1cccc(F)c1F)c1ccccc1	inactive	0	10	0	0	0
CCCCc1ccc(NC(=O)N[C@@H](C)c2ccccc2)cc1	inactive	10	0	0	10	0
C[C@H](NC(=O)Nc1ccc(C(C)(C)C)cc1)c1ccccc1	inactive	0	0	0	10	0
C[C@H](NC(=O)Nc1cccc(I)c1)c1ccccc1	inactive	0	10	0	0	0
CCOC(=O)c1cccc(NC(=O)N[C@@H](C)c2ccccc2)c1	inactive	0	0	0	0	0
C[C@H](NC(=O)Nc1cccc(F)c1)c1ccccc1	inactive	10	10	0	10	0
C[C@@H](NC(=O)Nc1ccccc1Br)c1ccccc1	inactive	0	10	0	0	0
C[C@H](NC(=O)Nc1cccc(Br)c1)c1ccccc1	inactive	0	10	0	0	0
C[C@@H](NC(=O)Nc1cc(C(C)(C)C)ccc1C(C)(C)C)c1ccccc1	inactive	0	0	0	0	0
C[C@@H](NC(=O)Nc1ccc(F)cc1)c1ccccc1	inactive	0	0	0	0	0
C[C@@H](NC(=O)Nc1ccc(F)c(F)c1)c1ccccc1	inactive	0	0	0	0	0
C[C@H](NC(=O)Nc1ccccc1Br)c1ccccc1	inactive	0	10	0	0	0
C[C@@H](NC(=O)Nc1cc(C(F)(F)F)cc(C(F)(F)F)c1)c1ccccc1	inactive	0	0	0	0	0
Cc1ccc(NC(=O)N[C@H](C)c2ccccc2)c(F)c1	inactive	0	0	0	0	0
C[C@@H](NC(=O)Nc1ccc(C(F)(F)F)cc1)c1ccccc1	inactive	0	0	0	0	0

Compound	Activity [1]	Activity [2] [%]	Activity [3] [%]	Activity [4] [%]	Activity [5] [%]	Activity [6] [%]
C[C@H](NC(=O)Nc1cccc(Cl)c1Cl)c1ccccc1	inactive	0	0	0	0	0
C[C@H](NC(=O)Nc1ccccc1Cl)c1ccccc1	inactive	0	10	0	0	0
C[C@H](NC(=O)Nc1ccc(Cl)cc1)c1ccccc1	inactive	0	0	0	0	0
C[C@H](NC(=O)Nc1ccc(F)c(F)c1)c1ccccc1	inactive	0	0	0	0	0
C[C@H](NC(=O)Nc1ccc(I)cc1)c1ccccc1	inactive	0	0	0	0	0
C[C@@H](NC(=O)Nc1cccc(I)c1)c1ccccc1	inactive	0	10	0	0	0
CCCCCCCc1ccc(NC(=O)N[C@H](C)c2ccccc2)cc1	inactive	0	0	0	0	0
C[C@H](NC(=O)Nc1ccccc1I)c1ccccc1	inactive	0	10	0	0	0
CC(=O)c1cccc(NC(=O)N[C@H](C)c2ccccc2)c1	inactive	0	0	0	0	0
COc1ccc(NC(=O)N[C@@H](C)c2ccccc2)cc1	inactive	0	0	0	0	0
CCCCCc1ccc(NC(=O)N[C@H](C)c2ccccc2)cc1	inactive	0	0	0	0	0
Cc1ccc(NC(=O)N[C@@H](C)c2ccccc2)c(F)c1	inactive	0	0	0	0	0
C[C@@H](NC(=O)Nc1cccc(Cl)c1)c1ccccc1	inactive	0	10	0	0	0
CCCCCc1ccc(NC(=O)N[C@@H](C)c2ccccc2)cc1	inactive	0	0	0	0	0
CC(=O)c1cccc(NC(=O)N[C@@H](C)c2ccccc2)c1	inactive	0	0	0	0	0
CCCCCCCc1ccc(NC(=O)N[C@@H](C)c2ccccc2)cc1	inactive	0	0	0	0	0
CCOC(=O)c1ccccc1NC(=O)N[C@H](C)c1ccccc1	inactive	0	0	0	0	0
C[C@@H](NC(=O)Nc1ccc(I)cc1)c1ccccc1	inactive	0	0	0	0	0
C[C@@H](NC(=O)Nc1cccc(F)c1)c1ccccc1	inactive	0	10	0	0	0
CC(C)c1ccc(NC(=O)N[C@H](C)c2ccccc2)cc1	inactive	0	0	0	0	0
